{"source": "patent US11807644B2", "about": "(PMV Pharmaceuticals, Inc., priority 2020, dated 2023)"}
{"molecular_target": "T1, recombinant His-tag Y220C p53 DBD protein (Homo sapiens, UniProt P04637, Y220C)", "T1 construct": "recombinant His-tag Y220C p53 DBD protein (amino acids #˜94-312)", "experiment": "In vitro DNA binding activity assay (TR-FRET): binding of His-tag Y220C p53 DBD to biotin-labeled consensus DNA", "type": "biochemical", "details": "SC150 = concentration to increase DNA binding by […], His-tag Y220C p53 DBD, biotin-labeled consensus DNA", "method": "(§1) DNA binding activity of the compounds was measured using a TR-FRET (Time-Resolved Fluorescence Resonance Energy Transfer) assay in which recombinant His-tag Y220C p53 DBD protein binds to biotin-labeled consensus DNA. Binding of recombinant His-tag Y220C p53 DBD protein and biotin-labeled consensus DNA was registered by the FRET (fluorescence resonance energy transfer) between allophycocyanin (APC) conjugated anti-His tag antibody and Europium-(Eu) conjugated Streptavidin.\n(§2) The compounds of TABLES 1-9 (2 mM stock in dimethylsulfoxide) were diluted 3-fold in series in dimethylsulfoxide. 1.2 μL of a compound solution was added to each well of 384-well polypropylene black plates (NUNC). Thirty μL per well of 181 nM recombinant His-tag Y220C p53 DBD protein (amino acids #˜94-312; SEQ ID NO: 1) and 6.1 nM of APC conjugated anti-His tag antibody (Columbia Biosciences) in ice-cold Assay Buffer 1 (50 mM Tris-HCl, pH 7.4, 75 mM KCl, 0.75 mM DTT and 0.2 mg/ml, BSA) were added. As a background control. 30 μL of Assay Buffer 1 containing 6.1 nM of APC anti-His antibody (No Y220C protein) was also added into a second set of serially diluted compound plates. The samples were spun by centrifuge at 1,200 rpm (Eppendorf 5810R Plate centrifuge) for 1 minute and incubated at room temperature (20° C.) for 15 min. The samples were then further incubated at either 27° C. or 29° C. for 60 min. […] The samples were spun by centrifuge at 1,200 rpm for 1 min and incubated at room temperature (20° C.) for 20 min. Assay signals were monitored by reading excitation at 340 nm, and emission fluorescence at 615 nm and 665 nm on an Envision® reader. Normalized TR-FRET (time-resolved fluorescence resonance energy transfer) assay signal (Rn) was calculated by the formula: Rn=[(A−Ba−C×(D−Bd))/(D−Bd)]×(D−Bd) Wherein: • A is the fluorescence intensity of the sample at 665 nm; • D is the fluorescence intensity of the sample at 615 nm; • Ba and Bd are plate backgrounds at 665 nm and 615 nm, respectively; and • Dc is the fluorescence intensity of 0.67 nM Eu-SA in the assay buffer at 615 nm.\n(§3) The cross-talk factor (C) was determined by the following formula: C=(Ac−Ba)/(Dc−Bd) wherein Ac is the fluorescence intensity of 0.67 nM Europium (Eu) conjugated Streptavidin in the assay buffer at 665 nm."}
{"smiles": "CN1CC[C@H](Nc2cccc3c2cc(-c2ccc(CNC(=O)c4ccccc4)s2)n3CC(F)(F)F)[C@H](F)C1", "note": "(racemic) [Compound 102B, (+/−)-N-{[5-(4-{[(3R,4S)-3-fluoro-1-methylpiperidin-4-yl]amino}-1-(2,2,2-trifluoroethyl)-1H-indol-2-yl)thiophen-2-yl]methyl}benzamide]", "Y220C SC150 (μM)": "** (** = 0.1 μM ≤ SC150 < 0.5 μM)"}
{"smiles": "CN1CC[C@@H](Nc2cccc3c2cc(-c2noc(CNC(=O)c4ccn(C5CCOCC5)c4)n2)n3CC(F)(F)F)[C@@H](F)C1", "note": "[Compound 335B, N-{[3-(4-{[(3S,4R)-3-fluoro-1-methylpiperidin-4-yl]amino}-1-(2,2,2-trifluoroethyl)-1H-indol-2-yl)-1,2,4-oxadiazol-5-yl]methyl}-1-(oxan-4-yl)-1H-pyrrole-3-carboxamide]", "Y220C SC150 (μM)": "* (* = 0 μM ≤ SC150 < 0.1 μM)"}
{"smiles": "COCC1(n2ccc(C(=O)NCc3nc(-c4cc5c(N[C@@H]6CCOC[C@@H]6F)cccc5n4CC(F)(F)F)no3)c2)CC1", "note": "[Compound 495B, N-{[3-(4-{[(3R,4R)-3-fluorooxan-4-yl]amino}-1-(2,2,2-trifluoroethyl)-1H-indol-2-yl)-1,2,4-oxadiazol-5-yl]methyl}-1-[1-(methoxymethyl)cyclopropyl]-1H-pyrrole-3-carboxamide]", "Y220C SC150 (μM)": "* (* = 0 μM ≤ SC150 < 0.1 μM)"}
{"smiles": "CO[C@@]1(C)CC[C@H](n2ccc(C(=O)NCc3nc(-c4cc5c(N[C@@H]6CCN(C)C[C@@H]6F)cccc5n4CC(F)(F)F)no3)c2)C1", "note": "(racemic) [Compound 388B]", "Y220C SC150 (μM)": "* (* = 0 μM ≤ SC150 < 0.1 μM)"}
{"smiles": "CCN1CC[C@@H](Nc2cccc3c2cc(-c2noc(CNC(=O)c4cnn(C5CCOCC5)c4)n2)n3CC(F)(F)F)[C@@H](F)C1", "note": "[Compound 334B, N-{[3-(4-{[(3S,4R)-1-ethyl-3-fluoropiperidin-4-yl]amino)-1-(2,2,2-trifluoroethyl)-1H-indol-2-yl)-1,2,4-oxadiazol-5-yl]methyl}-1-(oxan-4-yl)-1H-pyrazole-4-carboxamide]", "Y220C SC150 (μM)": "* (* = 0 μM ≤ SC150 < 0.1 μM)"}
{"smiles": "COc1cc(S(C)(=O)=O)ccc1NCc1nnc(-c2cc3c(N[C@H]4CCN(C)C[C@@H]4F)cccc3n2CC(F)(F)F)o1", "note": "(racemic) [Compound 123B, (+/−)-N-[(3R,4R)-3-fluoro-1-methylpiperidin-4-yl]-2-(5-{[(4-methanesulfonyl-2-methoxyphenyl)amino]methyl}-1,3,4-oxadiazol-2-yl)-1-(2,2,2-trifluoroethyl)-1H-indol-4-amine]", "Y220C SC150 (μM)": "** (** = 0.1 μM ≤ SC150 < 0.5 μM)"}
{"smiles": "COC[C@@H]1CCCN1c1nc(C(=O)NCc2nc(-c3cc4c(N[C@@H]5CCN(C)C[C@@H]5F)cccc4n3CC(F)(F)F)no2)cs1", "note": "[Compound 519B, N-{[3-(4-{[(3S,4R)-3-fluoro-1-methylpiperidin-4-yl]amino}-1-(2,2,2-trifluoroethyl)-1H-indol-2-yl)-1,2,4-oxadiazol-5-yl]methyl}-2-[(2S)-2-(methoxymethyl)pyrrolidin-1-yl]-1,3-thiazole-4-carboxamide]", "Y220C SC150 (μM)": "* (* = 0 μM ≤ SC150 < 0.1 μM)"}
{"smiles": "CN1CC[C@@H](Nc2cccc3c2cc(-c2noc(CNC(=O)[C@@H]4C[C@H]4c4ccc(F)cc4)n2)n3CC(F)(F)F)[C@@H](F)C1", "note": "[Compound 210B, (1R,2R)-N-{[3-(4-{[(3S,4R)-3-fluoro-1-methylpiperidin-4-yl]amino}-1-(2,2,2-trifluoroethyl)-1H-indol-2-yl)-1,2,4-oxadiazol-5-yl]methyl}-2-(4-fluorophenyl)cyclopropane-1-carboxamide]", "Y220C SC150 (μM)": "* (* = 0 μM ≤ SC150 < 0.1 μM)"}
{"smiles": "CN1CC[C@@H](Nc2cccc3c2cc(-c2noc(CNC(=O)[C@@H]4CC4(C)C)n2)n3CC(F)(F)F)[C@@H](F)C1", "note": "[Compound 239B, (1R)-N-{[3-(4-{[(3S,4R)-3-fluoro-1-methylpiperidin-4-yl]amino}-1-(2,2,2-trifluoroethyl)-1H-indol-2-yl)-1,2,4-oxadiazol-5-yl]methyl}-2,2-dimethylcyclopropane-1-carboxamide]", "Y220C SC150 (μM)": "* (* = 0 μM ≤ SC150 < 0.1 μM)"}
{"smiles": "CN1CCC(Nc2cccc3c2cc(-c2nc(CNC(=O)C4CC4)no2)n3CC(F)(F)F)CC1", "note": "[Compound 137B, N-[(5-{4-[(1-methylpiperidin-4-yl)amino]-1-(2,2,2-trifluoroethyl)-1H-indol-2-yl}-1,2,4-oxadiazol-3-yl)methyl]cyclopropanecarboxamide]", "Y220C SC150 (μM)": "** (** = 0.1 μM ≤ SC150 < 0.5 μM)"}
{"smiles": "CN1CC[C@@H](Nc2cccc3c2cc(-c2noc(CNC(=O)c4ccn(C5(C)CCOCC5)c4)n2)n3CC(F)(F)F)[C@@H](F)C1", "note": "[Compound 371B, N-{[3-(4-{[(3S,4R)-3-fluoro-1-methylpiperidin-4-yl]amino}-1-(2,2,2-trifluoroethyl)-1H-indol-2-yl)-1,2,4-oxadiazol-5-yl]methyl}-1-(4-methyloxan-4-yl)-1H-pyrrole-3-carboxamide]", "Y220C SC150 (μM)": "* (* = 0 μM ≤ SC150 < 0.1 μM)"}
{"smiles": "CN1CC[C@@H](Nc2cccc3c2cc(-c2nnc(CNC(=O)C4CCC4)s2)n3CC(F)(F)F)[C@@H](F)C1", "note": "(racemic) [Compound 37B, (+/−)-N-{[5-(4-{[(3R,4S)-3-fluoro-1-methylpiperidin-4-yl]amino}-1-(2,2,2-trifluoroethyl)-1H-indol-2-yl)-1,3,4-thiadiazol-2-yl]methyl}cyclobutanecarboxamide]", "Y220C SC150 (μM)": "** (** = 0.1 μM ≤ SC150 < 0.5 μM)"}
{"smiles": "CN1CC[C@@H](Nc2cccc3c2cc(-c2noc(CNC(=O)c4ccn(C5(C)CCOC5)c4)n2)n3CC(F)(F)F)[C@@H](F)C1", "note": "(stereo partly drawn) [Compound 401B, N-{[3-(4-{[(3S,4R)-3-fluoro-1-methylpiperidin-4-yl]amino}-1-(2,2,2-trifluoroethyl)-1H-indol-2-yl)-1,2,4-oxadiazol-5-yl]methyl}-1-(3-methyloxolan-3-yl)-1H-pyrrole-3-carboxamide]", "Y220C SC150 (μM)": "* (* = 0 μM ≤ SC150 < 0.1 μM)"}
{"smiles": "CN1CCC(Nc2cccc3c2cc(-c2nnc(CNC(=O)C4CC4)o2)n3CC(F)(F)F)CC1", "note": "[Compound 110B, N-[(5-{4-[(1-methylpiperidin-4-yl)amino]-1-(2,2,2-trifluoroethyl)-1H-indol-2-yl}-1,3,4-oxadiazol-2-yl)methyl]cyclopropanecarboxamide]", "Y220C SC150 (μM)": "*** (*** = 0.5 μM ≤ SC150 < 1 μM)"}
{"smiles": "CC(C)(C)n1ccc(C(=O)NCc2nc(-c3cc4c(N[C@H]5CC[C@@H](F)CC5)cccc4n3CC(F)(F)F)no2)c1", "note": "[Compound 343B, 1-tert-butyl-N-{[3-(4-{[(1s,4s)-4-fluorocyclohexyl]amino}-1-(2,2,2-trifluoroethyl)-1H-indol-2-yl)-1,2,4-oxadiazol-5-yl]methyl}-1H-pyrrole-3-carboxamide]", "Y220C SC150 (μM)": "* (* = 0 μM ≤ SC150 < 0.1 μM)"}
{"smiles": "CN1CCC(Nc2cccc3c2cc(-c2noc(CNC(=O)C4CC4)n2)n3CC(F)(F)F)C1", "note": "(racemic) [Compound 169B, (+/−)-N-[(3-{4-[(1-methylpyrrolidin-3-yl)amino]-1-(2,2,2-trifluoroethyl)-1H-indol-2-yl}-1,2,4-oxadiazol-5-yl)methyl]cyclopropanecarboxamide]", "Y220C SC150 (μM)": "* (* = 0 μM ≤ SC150 < 0.1 μM)"}
{"molecular_target": "T1, recombinant His-tag Y220C p53 DBD protein", "experiment": "In vitro DNA binding activity assay (TR-FRET): binding of His-tag Y220C p53 DBD to biotin-labeled consensus DNA", "type": "biochemical", "details": "concentration to increase DNA binding by […], incubated at either 27° C. or 29° C. for 60 min", "method": "as §1, §2, §3"}
{"smiles": "CC(Nc1ccc(S(C)(=O)=O)cc1)c1ccc(-c2cc3c(NC4CCN(C)CC4)cccc3n2CC(F)(F)F)cc1", "note": "(centres unmarked) [Compound 41A, 2-(4-{1-[(4-methanesulfonylphenyl)amino]ethyl}phenyl)-N-(1-methylpiperidin-4-yl)-1-(2,2,2-trifluoroethyl)-1H-indol-4-amine]", "SC150 (μM)": "++ (++ = 2 μM ≤ SC150 < 5 μM)"}
